Experimental findings from patent publication US11331294B2, “Benzoquinone derivative E3330 in combination with chemotherapeutic agents for the treatment of bladder cancer” (Indiana University Research and Technology Corporation, priority 2007, dated 2022) are described below.

Data set [1] has as its system T24 human bladder cancer cells. The data set is described as follows: T24 subcutaneous flank xenograft. Format: in vivo, athymic nude mice. As to conditions: for tumor weight at sacrifice: ip every 12 hours, vehicle 1.0±0.2 g; for tumor growth compared to vehicle control / reduction in survivin expression in harvested tumors: ip twice daily. The method, then:
[…] T24 human bladder cancer cells were grown in conditions described above and harvested with 0.05% Trypsin, centrifuged, and resuspended in a 50:50 solution of Matrigel: RPMI medium. For each subcutaneous tumor, a 100 μl volume of this suspension was implanted in the hind flank of […]. […] BrdU was injected into the animals 2 hours prior to sacrifice and tumor tissues were harvested and split into either snap frozen tissues for protein harvest and molecular analysis or fixed in formalin and processed for histological analysis, and then analyzed for survivin, Cyclin D1 levels (immunofluorescence and immunoblotting) for target protein assessment and BrdU incorporation (immunofluorescence).
Prior to sacrifice, mice were injected with BrdU and BrdU incorporation was visualized and quantitated via red fluorescence.

A further data set concerns T24 cells. The data set can be described thus: Methylene blue cell growth assay T24. Format: cell-based. The conditions noted are these: Homo sapiens, T-24, read-out: cell growth-inhibitory IC50. The method, then:
(§1) FIGS. 31A & 31B. Treatment with APE1/Ref-1 inhibitors potently blocks bladder cancer cell proliferation and activated Caspase 3/7. […] The IC50 values for FIG. 31A were determined using the methylene blue assay, n=4. […] T24 and UC3 cells were treated with APX2009 and APX2014 at the IC50 and IC90 and monitored over time for activation of capsase 3/7 by an increase in red fluorescence. Time course graphs are shown in FIG. 31B and representative images at 48 hr are shown in FIG. 32A (described more fully below), n=3-4.
(§2) FIGS. 36A-36H. […] In cytokine-induced T24 and UC3 cells NFκB-driven luciferase (FIG. 36A), STAT3-driven luciferase (FIG. 36B), and AP-1-driven luciferase (FIG. 36C) were quantified and normalized via Renilla following treatment with the corresponding cell growth-inhibitory IC50 concentrations. T24 cells were treated with APX2009 (8.5 μM) and APX2014 (6.5 μM), and UC3 cells were treated with APX2009 (6.1 μM) and APX2014 (4.6 μM) for 24 h. (*-p<0.05 APX treated vs vehicle, n=4). […] In the panels of FIGS. 36F & 36G, co-expression of survivin and APE1/Ref-1 was analyzed in superficial (FIG. 36F) and invasive human bladder tumors (FIG. 36G) in patients, and found nearly universal overlap of positivity in both in human samples. This was also true in cisplatin-refractory patients from the tissue microarray specimens (FIG. 36H). […]

In another data set the test system is bladder cancer cells. The data set is described as follows: BrdU incorporation assay in cultured cells. As to conditions: IC50 concentration, 24 hours; control 11.2%±0.84. Format: cell-based. The method, then:
To determine the proliferation rate of cells in response to APE1/Ref-1 redox inhibitors, cells were grown in the culture conditions described above and treated with inhibitors as described above, in chamber slides. After 24 hours in culture with inhibitors or vehicle, all cells were treated with 3.1 μg/ml BrdU (in sterile PBS; 0.1%) for one hour. Cells were fixed and permeablized with 4% paraformaldehyde and stained for BrdU incorporation with the antibody and methodology described in the Roche BrdU labeling Kit, (Risch-Rotkreuz, Switzerland), using secondary antibodies. Positive cells were captured on a Leica 6000 fluorescent microscope and were quantified relative to Hoechst positive nuclei (total live cells).
To further characterize this effect, it was analyzed whether this reduced cell number was due to decreases in proliferation, increases in apoptosis, or both.
Background: Dividing cells build labelled thymidine or BrdU into new DNA.

The test system of a further data set is UC3 cells. The data set can be described thus: Methylene blue cell growth assay UC3. Format: cell-based. The conditions noted are these: Homo sapiens, read-out: cell growth-inhibitory IC50. The method, then:
as §1, §2

In another data set the test system is pancreatic tumor cells. The data set is described as follows: Annexin V/PI apoptosis assay in pancreatic tumor cells. Type of data set: cell-based. The method, then: APX3330 in combination with chemotherapeutic Gemcitabine. […] To analyze the cells for apoptosis, cells were plated and allowed to attach overnight. Cells were treated with APX3330 alone or with gemcitabine. Apoptosis was assayed about 24 and 48 hr following treatment. Cells were trypsinized, pelleted, washed in ice-cold PBS, and resuspended in 1× binding buffer [about 10 mmol/L HEPES/NaOH (pH 7.4), 140 mmol/L NaCl, 2.5 mmol/L CaCl2]. Apoptosis was analyzed using the Alexa Fluor 488 AnnexinV from Vybrant Apoptosis Assay kit in combination with propidium iodide (Molecular Probes, Eugene, Oreg.) as described previously Clinical Cancer Research 13, 260-267, Jan. 1, 2007. Cells that were strongly Annexin positive were considered positive for apoptosis. The samples were analyzed by flow cytometry in the Indiana University Cancer Center flow cytometry facility.
APX3330 in combination with Methoxyamine-pancreatic cells. […] To analyze the cells for apoptosis, cells were plated and allowed to attach overnight. […] Apoptosis was analyzed using the Alexa Fluor 488 Annexin V from Vybrant Apoptosis Assay kit in combination with propidium iodide (Molecular Probes, Eugene, Oreg.) as described previously Clinical Cancer Research 13, 260-267, Jan. […] The samples were analyzed by flow cytometry in the Indiana University Cancer Center flow cytometry facility.

The test system of data set [2] is rat dorsal root ganglion cells. The data set is described as follows: MTS cell viability assay of dorsal root ganglion cells. Type of data set: cell-based. The method, then: APX3330 in combination with chemotherapeutic Cisplatin. […] There was no effect of APX3330 (RN3-3) on the post-mitotic DRG cells, indicative of a non-toxic effect of APX3330 (RN3-3) on non-dividing cells.
DRG cell cultures and treatments were performed similar to previously published procedures using just APX3330 alone (DNA Repair Volume 4, Issue 3, 2 Mar. 2005, pp […]).

Data set [3] can be described thus: Preliminary in vivo safety in mice (body weight). As to conditions: male mice, under 50 mg/kg.
The mark [4] stands for this setting: APX3330 50 mg/kg, APX2009 25 mg/kg.
Where [5] appears, read: APX3330 50 mg/kg, APX2009 25 mg/kg, immunoblot.

Each structure is given as a SMILES string.

Usually IC50 stands for the point on the concentration scale where inhibition reaches its midpoint. On to `CCC/C(=C\C1=C(OC)C(=O)c2ccccc2C1=O)C(=O)N(CC)CC` [APX2009, [(2E)-2-[(3-methoxy-1,4-dioxo-1,4-dihydronaphthalen-2-yl)methylidene]-N,N-diethylpentanamide]], for which the “decrease in BrdU+ cells in tumors” value in data set [1] (APX2009 25 mg/kg ip twice daily) was determined as 60%. Also, in data set [1] (setting [4]), the “tumor weight at sacrifice” value is 0.37 ± 0.14 g and the “tumor growth compared to vehicle control” value is “significantly reduced tumor growth”. In addition, in data set [1] (setting [5]), the “reduction in survivin expression in harvested tumors” value was 64% and the “ratio of cleaved caspase 3 to total caspase 3 in harvested tumors” value is “increase in the ratio of cleaved caspase 3”. Moreover, the IC50 in the data set on T24 cells was found to be 8.5 µM. For the same compound, the BrdU-positive cells with bladder cancer cells is listed as 6.9%±0.58. For the same compound, the 50% inhibitory concentration (IC50) in the data set on UC3 cells amounted to 6.1 µM.

Turning to `CCCCCCCCC/C(=C\C1=C(C)C(=O)C(OC)=C(OC)C1=O)C(=O)O` [APX3330], in the data set on pancreatic tumor cells (about 24 and 96 hr), the “apoptosis in combination with methoxyamine” value was “enhanced the apoptosis inducing effects of methoxyamine”. In addition, the “apoptosis in combination with gemcitabine” value in the data set with pancreatic tumor cells (gemcitabine about 0.25 μM, 24 and 48 hr) is “enhanced the apoptosis inducing effects of gemcitabine”. Further, in data set [1] (setting [4]), the “tumor weight at sacrifice” value was 0.43 ± 0.10 g and the “tumor growth compared to vehicle control” value is “significantly reduced tumor growth”. Besides, in data set [1] (setting [5]), the “reduction in survivin expression in harvested tumors” value came to 42%. The “survival of dorsal root ganglion cells” value in data set [2] (as high as about 120 μM, up to about 72 hours) is listed as “did not impair the survival”. Also, the “protection against cisplatin neurotoxicity” value in data set [2] (with cisplatin) is on record as “provided protection against the neuro-toxic effects of the chemotherapeutic cisplatin”. In the data set on bladder cancer cells, the BrdU-positive cells is on record as 7.8%±0.64. The mouse toxicity entry in data set [3] was “No mouse toxicity was observed”.
